Reference: the NIST ThermoML archive (doi:10.1021/je500502a)

Legend:
[1] = refractive index (Na D-line) (dimensionless); conditions: 101.33 kPa, Liquid, Standard Abbe refractometry
[2] = 101.33 kPa, Liquid; for electrical conductivity: PICO digital conductivity meter; for speed of sound: Sing-around technique in a fixed-path interferometer; for mass density: Vibrating tube method

CCn1cc[n+](C)c1.O=S(=O)([N-]S(=O)(=O)C(F)(F)F)C(F)(F)F
Conditions | electrical conductivity, [2] [S/m] | mass density, [2] [kg/m3] | refractive index, [1] | speed of sound, [2] [m/s]
293.15 K | 0.854 | 1521.47 | 1.42425 | 1251.2
298.15 K | 0.947 | 1516.39 | 1.42286 | 1240.3
303.15 K | 1.07 | 1511.32 | 1.42142 | 1229.4
308.15 K | 1.19 | 1506.27 | 1.41997 | 1218.5
313.15 K | 1.33 | 1501.23 | 1.4185 | 1207.8
318.15 K | 1.48 | 1496.21 | 1.41705 | 1197.2
323.15 K | 1.64 | 1491.21 | 1.41555 | 1186.7
